{"source": "patent US12564597B2", "about": "(priority 2020, dated 2026)", "key": {"[1]": {"experiment": "Plasma pharmacokinetics and brain distribution in male Wistar rats after a single intraperitoneal dose", "method": "Formulation strengths for intraperitoneal administration was 4 mg/mL. A weighed quantity of compound was combined with an appropriate volume of vehicle (10% ethanol and 90% normal saline), the mixture was warmed to 55° C. and vortexed until a clear yellowish solution was obtained. The dosing volume administered was 10 mL/kg for intraperitoneal route.\nHealthy male Wistar rats (8-12 weeks old) weighing between 280 to 300 g were procured from Global, India. Three rats were housed in each cage. […] Temperature and humidity were recorded by auto-controlled data logger system. All the animals were provided laboratory rodent diet (Envigo Research private Ltd, Hyderabad). Reverse osmosis water treated with ultraviolet light was provided ad libitum.\nBlood samples (approximately 120 μL) were collected under light isoflurane anesthesia from retro orbital plexus from a set of three rats at specified time intervals. Samples were collected into labeled micro-tubes, containing K2EDTA solution (10 μL of 20% K2EDTA of solution per mL of blood) as an anticoagulant. Plasma was immediately harvested from the blood by centrifugation at 4000 rpm for 10 min at 4±2° C. and stored below −70±10° C. until bioanalysis.\nImmediately, after blood collection animals were euthanized with excess CO2 and brain was isolated at each time point. Brain was rinsed three times in ice cold PBS (for 5-10 seconds/rinse using ˜5-10 mL fresh PBS in disposable petri dish for each rinse) and dried on blotting paper. Brain samples were homogenized using ice-cold phosphate buffer saline (pH 7.4) and homogenates were stored below −70±10° C. until analysis. Total homogenate volume was three times the tissue weight.\nThe extraction procedure for plasma and brain samples and the spiked plasma and brain calibration standards were identical: A 25 PL of study sample or spiked plasma and brain calibration standard was added to individual pre-labeled micro-centrifuge tubes followed by 100 PL of internal standard prepared in Acetonitrile (Glipizide, 500 ng/mL) was added except for blank, where 100 μL of Acetonitrile was added. Samples were vortexed for 5 minutes and then centrifuged for 10 minutes at a speed of 4000 rpm at 4° C. Following centrifugation, 100 μL of clear supernatant was transferred to a 96 well plate and analyzed using LC-MS/MS.\nNon-compartmental analysis tool of Phoenix WinNonlin® (Version 7.0) was used to assess the pharmacokinetic parameters. Peak plasma concentrations (Cmax) and time for the peak plasma concentrations (Tmax) were the observed values. The areas under the concentration time curve (AUClast and AUCinf) were calculated by linear trapezoidal rule. The terminal elimination rate constant, ke was determined by regression analysis of the linear terminal portion of the log plasma concentration-time curve."}, "[2]": {"experiment": "in vitro", "conditions": "for Percentage turnover of test compounds (percent remaining): 10 μM, +NADPH", "method": "(§1) Metabolism Studies. Metabolic stability of test compounds was evaluated in liver microsomes from rat (RLM) and human (HLM). This was accomplished by incubating test compounds with microsomes and monitoring disappearance of parent compound as well as metabolite formation over time using LC-MS/MS in Multiple Reaction Monitoring mode (MRM).\n(§2) Stock solutions of test compounds were prepared in DMSO at a concentration of 10 mM.\n(§3) Total Incubation volume: 100 μL\n(§4) Compound concentration: 10 μM\n(§5) Protein Concentration: 0.5 mg/mL (0.25 mg/mL for positive controls)\n(§6) From the above mix, 70 PL was added to individual wells of 96 well reaction plates and pre-incubated at 37° C. for 5 min. […] Reactions without NADPH and buffer controls (minus NADPH) at 0 min and 60 min were also incubated to rule out non-NADPH metabolism or chemical instability in the incubation buffer. All reactions were terminated using 100 μL of ice-cold acetonitrile containing internal standard (glipizide) at 0, 5, 15, 30 and 60 min.\n(§7) Stock solution of noribogaine was prepared in DMSO at a concentration of 20 mM and serially diluted in DMSO to prepare 10, 3, 1, 0.3, 0.1 and 0.03 mM solutions respectively.\n(§8) Samples were monitored for parent compounds disappearance and formation of metabolite in MRM mode using LC-MS/MS instrument (API-4000 with Waters UPLC).\n(§9) The percent remaining of test compounds and positive control in each sample was determined by considering peak area ratio in the 0 minute sample as 100%.\n(§10) In vitro intrinsic clearance (CL′int) (units in mL/min/kg) was calculated using the formula: […]\n(§11) For human, monkey, dog, rat and mouse the liver weight are 20 gm, 32 gm, 32 gm, 40 gm and 90 gm respectively."}, "[3]": {"experiment": "Buffer control for chemical instability in the incubation buffer", "format": "physicochemical", "conditions": "Kphos buffer pH 7.4, 37° C., no microsomes, minus NADPH"}, "[4]": {"experiment": "Metabolic stability and noribogaine formation in rat liver microsomes (RLM)", "conditions": "for Percentage turnover of test compounds (percent remaining): 10 μM, +NADPH", "method": "as §1, §2, §3, §4, §5, §6, §7, §8, §9, §10, §11"}, "[5]": {"conditions": "0.08 h after CD3O-ibogamine 40 mg/kg i.p."}, "[6]": {"conditions": "0.5 h after CD3O-ibogamine 40 mg/kg i.p."}, "[7]": {"conditions": "1 h after CD3O-ibogamine 40 mg/kg i.p."}, "[8]": {"conditions": "2 h after CD3O-ibogamine 40 mg/kg i.p."}, "[9]": {"conditions": "3 h after CD3O-ibogamine 40 mg/kg i.p."}, "[10]": {"conditions": "male, Wistar, rat, in vivo, ip, 40 mg/kg, brain, analyte after CD3O-ibogamine 40 mg/kg i.p."}, "[11]": {"conditions": "male, Wistar, rat, in vivo, ip, 40 mg/kg, plasma, analyte after CD3O-ibogamine 40 mg/kg i.p."}}}
{"molecule": "[2H]C([2H])([2H])Oc1ccc2[nH]c3c(c2c1)CCN1C[C@H]2C[C@H](CC)C1[C@H]3C2", "note": "[CD3O-ibogamine]", "values": [{"measurement": "Mean brain concentration", "setting": "[1]; [5]", "value": 11340, "unit": "ng/g"}, {"measurement": "Mean plasma concentration", "setting": "[1]; [5]", "value": 1229, "unit": "ng/mL"}, {"measurement": "Mean brain concentration", "setting": "[1]; [6]", "value": 6647, "unit": "ng/g"}, {"measurement": "Mean plasma concentration", "setting": "[1]; [6]", "value": 698, "unit": "ng/mL"}, {"measurement": "Mean brain concentration", "setting": "[1]; [7]", "value": 5363, "unit": "ng/g"}, {"measurement": "Mean plasma concentration", "setting": "[1]; [7]", "value": 620, "unit": "ng/mL"}, {"measurement": "Mean brain concentration", "setting": "[1]; [8]", "value": 3941, "unit": "ng/g"}, {"measurement": "Mean plasma concentration", "setting": "[1]; [8]", "value": 343, "unit": "ng/mL"}, {"measurement": "Mean brain concentration", "setting": "[1]; [9]", "value": 4684, "unit": "ng/g"}, {"measurement": "Mean plasma concentration", "setting": "[1]; [9]", "value": 473, "unit": "ng/mL"}, {"measurement": "AUClast", "setting": "[1]; brain, analyte after CD3O-ibogamine 40 mg/kg i.p.", "value": 16357.31, "unit": "ng·h/g"}, {"measurement": "AUC(0-t)", "setting": "[1]; male, Wistar, rat, in vivo, ip, 40 mg/kg, AUClast, plasma, analyte after CD3O-ibogamine 40 mg/kg i.p.", "value": 1700, "unit": "ng·h/mL"}, {"measurement": "Cmax", "setting": "[1]; [10]", "value": 11300, "unit": "ng/g"}, {"measurement": "Cmax", "setting": "[1]; [11]", "value": 1230, "unit": "ng/mL"}, {"measurement": "Tmax", "setting": "[1]; [10]", "value": 4.8, "unit": "min"}, {"measurement": "Tmax", "setting": "[1]; [11]", "value": 4.8, "unit": "min"}, {"measurement": "difference of plasma concentration versus ibogaine (lower for CD3O-ibogamine)", "setting": "[1]; single i.p. dose 40 mg/kg", "value": "approximately 25%"}, {"measurement": "maximum brain concentration as percent of the ibogaine concentration detected after its administration", "setting": "[1]; single i.p. dose 40 mg/kg", "value": "~43", "unit": "%"}, {"measurement": "CLh, int", "setting": "[2]; HLM", "value": 42, "unit": "mL/min/kg"}, {"measurement": "metabolic degradation, times faster compared to that of ibogaine", "setting": "[2]; HLM", "value": "more than 2 ×"}, {"measurement": "Percentage turnover of test compounds (percent remaining)", "setting": "[2]; HLM, 0 min", "value": 100, "unit": "%"}, {"measurement": "Percentage turnover of test compounds (percent remaining)", "setting": "[2]; HLM, 5 min", "value": 98, "unit": "%"}, {"measurement": "Percentage turnover of test compounds (percent remaining)", "setting": "[2]; HLM, 15 min", "value": 83, "unit": "%"}, {"measurement": "Percentage turnover of test compounds (percent remaining)", "setting": "[2]; HLM, 30 min", "value": 67, "unit": "%"}, {"measurement": "Percentage turnover of test compounds (percent remaining)", "setting": "[2]; HLM, 60 min", "value": 25, "unit": "%"}, {"measurement": "% Remaining at 60 min (+NADPH)", "setting": "[2]; HLM, summary", "value": 25, "unit": "%"}, {"measurement": "% Remaining at 60 min (−NADPH)", "setting": "[2]; HLM, without NADPH", "value": 105, "unit": "%"}, {"measurement": "half-life", "setting": "[2]; human, microsomes, pH 7.4", "value": 30, "unit": "min"}, {"measurement": "% Remaining at 60 min (Buffer)", "setting": "[3]", "value": 90, "unit": "%"}, {"measurement": "CLh, int", "setting": "[4]; RLM", "value": 742, "unit": "mL/min/kg"}, {"measurement": "t1/2", "setting": "[4]; RLM", "value": "<5", "unit": "min"}, {"measurement": "Percentage turnover of test compounds (percent remaining)", "setting": "[4]; RLM, 0 min", "value": 100, "unit": "%"}, {"measurement": "Percentage turnover of test compounds (percent remaining)", "setting": "[4]; RLM, 5 min", "value": 36, "unit": "%"}, {"measurement": "Percentage turnover of test compounds (percent remaining)", "setting": "[4]; RLM, 15 min", "value": 0, "unit": "%"}, {"measurement": "Percentage turnover of test compounds (percent remaining)", "setting": "[4]; RLM, 30 min", "value": 1, "unit": "%"}, {"measurement": "Percentage turnover of test compounds (percent remaining)", "setting": "[4]; RLM, 60 min", "value": 0, "unit": "%"}, {"measurement": "% Remaining at 60 min (+NADPH)", "setting": "[4]; RLM, summary", "value": 0, "unit": "%"}, {"measurement": "% Remaining at 60 min (−NADPH)", "setting": "[4]; RLM, without NADPH", "value": 105, "unit": "%"}, {"measurement": "metabolism compared to ibogaine in the in vitro study", "setting": "[4]; in vitro microsome study", "value": "metabolized faster than ibogaine"}, {"measurement": "half-life at 10 μM", "setting": "[4]; male, rat, microsomes, pH 7.4", "value": "< 5", "unit": "min"}, {"measurement": "total amount of noribogaine produced compared to ibogaine", "setting": "[4]; short incubation period (~5 min)", "value": "comparable"}]}
